Columns and labels:
[1] = Dissolving icaridin in water with individual components only (Example 2, visual result); assay type: physicochemical; details: icaridin 5.0 wt.%
Method: In this experiment, it is tested if the combination of the cosolvent and the surfactant is required to dissolve icaridin or if individual components can also dissolve icaridin in water.
Deionized water was brought in a beaker equipped with a stirring bar and placed on a stirring plate. The (when applicable) cosolvent was added to the solution whilst stirring. Subsequently (when applicable) the surfactant was added, before this dissolved also (when applicable) icaridin was added. Stirring is stopped when everything is dissolved.

[2] = Dissolving DEET with the composition of the invention (Example 3, general procedure); assay type: physicochemical; details: composition of Table 3
Method: A general procedure to prepare the solution of an active compound in the composition of the invention is applied: • Deionized water was brought in a beaker equipped with a stirring bar and placed on a stirring plate. The cosolvent was added to the solution whilst stirring. Subsequently, the surfactant was added, and before the surfactant was dissolved also icaridin was added. Stirring is stopped when all components of the composition are dissolved.
The same test was applied to determine if the composition of the invention is also able to dissolve alternative water-insoluble compounds. In this experiment icaridin was switched for DEET and the general procedure was applied.

| Amount dissolved in water by the composition of the invention [2] | SMILES | Solubility of icaridin in water (conclusion from Table 2) [1] |
| --- | --- | --- |
| – | CCC(C)OC(=O)N1CCCCC1CCO (centres unmarked) [icaridin] | only soluble in water using the combination cosolvent and surfactants |
| 5 wt. % | CCN(CC)C(=O)c1cccc(C)c1 [DEET, N,N-diethyl-m-toluamide] | – |

From patent US20260026506A1, “COMPOSITION FOR DISSOLVING AN OILY COMPOUND IN WATER” (AFFIX LABS OY, priority 2022, published 2026)
